Assay results published in ChEMBL document CHEMBL2440076, “New triarylpyrazoles as broad-spectrum anticancer agents: design, synthesis, and biological evaluation” (Eur J Med Chem, 2013).

What was measured:
NCI-H226 = assay: Growth inhibition of human NCI-H226 cells after 48 hrs by sulforhodamine B assay; assay type: functional; settings: NCI-H226, 48 h; for CC50: read-out: LC50 (the source's name)
NCI-H522 = assay: Growth inhibition of human NCI-H522 cells after 48 hrs by sulforhodamine B assay; assay type: functional; settings: NCI-H522, 48 h
786-0 = assay: Growth inhibition of human 786-0 cells assessed as cell growth at 10 uM after 48 hrs by sulforhodamine B assay; assay type: functional; settings: 786-0, 48 h, read-out: Activity
ACHN = assay: Growth inhibition of human ACHN cells assessed as cell growth at 10 uM after 48 hrs by sulforhodamine B assay; assay type: functional; settings: read-out: Activity
UACC-62 = assay: Growth inhibition of human UACC62 cells assessed as cell growth at 10 uM after 48 hrs by sulforhodamine B assay; assay type: functional; settings: UACC-62, 48 h, read-out: Activity
LOX IMVI [1] = assay: Growth inhibition of human LOXIMVI cells after 48 hrs by sulforhodamine B assay; assay type: functional
M14 = assay: Growth inhibition of human M14 cells after 48 hrs by sulforhodamine B assay; assay type: functional; settings: M14, 48 h
NCI-H23 = assay: Growth inhibition of human NCI-H23 cells assessed as cell growth at 10 uM after 48 hrs by sulforhodamine B assay; assay type: functional; settings: NCI-H23, 48 h, read-out: Activity
HOP-92 = assay: Growth inhibition of human HOP92 cells after 48 hrs by sulforhodamine B assay; assay type: functional, cell-based; settings: HOP-92, 48 h
LOX IMVI [2] = assay: Growth inhibition of human LOXIMVI cells assessed as cell growth at 10 uM after 48 hrs by sulforhodamine B assay; assay type: functional; settings: read-out: Activity
HCT-116 = assay: Growth inhibition of human HCT116 cells assessed as cell growth at 10 uM after 48 hrs by sulforhodamine B assay; assay type: functional; settings: HCT-116, 48 h, read-out: Activity
SF-295 = assay: Growth inhibition of human SF295 cells after 48 hrs by sulforhodamine B assay; assay type: functional, cell-based; settings: SF-295, 48 h; for CC50: read-out: LC50 (the source's name)
SK-OV-3 = assay: Growth inhibition of human SKOV3 cells after 48 hrs by sulforhodamine B assay; assay type: functional; settings: SK-OV-3, 48 h; for CC50: read-out: LC50 (the source's name)
OVCAR-5 = assay: Growth inhibition of human OVCAR5 cells after 48 hrs by sulforhodamine B assay; assay type: functional; settings: OVCAR-5, 48 h
MCF7 = assay: Growth inhibition of human MCF7 cells after 48 hrs by sulforhodamine B assay; assay type: functional; settings: MCF7, 48 h
OVCAR-4 = assay: Growth inhibition of human OVCAR4 cells after 48 hrs by sulforhodamine B assay; assay type: functional; settings: OVCAR-4, 48 h
HOP-62 = assay: Growth inhibition of human HOP62 cells after 48 hrs by sulforhodamine B assay; assay type: functional; settings: HOP-62, 48 h; for CC50: read-out: LC50 (the source's name)
UO-31 = assay: Growth inhibition of human UO31 cells assessed as cell growth at 10 uM after 48 hrs by sulforhodamine B assay; assay type: functional; settings: UO-31, 48 h, read-out: Activity
SNB-75 = assay: Growth inhibition of human SNB75 cells after 48 hrs by sulforhodamine B assay; assay type: functional; settings: SNB-75, 48 h
MDA-MB-435 = assay: Growth inhibition of human MDA-MB-435 cells assessed as cell growth at 10 uM after 48 hrs by sulforhodamine B assay; assay type: functional; settings: MDA-MB-435, 48 h, read-out: Activity
IGROV-1 [3] = assay: Growth inhibition of human IGROV1 cells after 48 hrs by sulforhodamine B assay; assay type: functional; settings: IGROV-1, 48 h
PC-3 = assay: Growth inhibition of human PC3 cells after 48 hrs by sulforhodamine B assay; assay type: functional, cell-based; settings: PC-3, 48 h; for CC50: read-out: LC50 (the source's name)
Malme-3M [4] = assay: Growth inhibition of human MALME-3M cells assessed as cell growth at 10 uM after 48 hrs by sulforhodamine B assay; assay type: functional; settings: read-out: Activity
Malme-3M [5] = assay: Growth inhibition of human MALME-3M cells after 48 hrs by sulforhodamine B assay; assay type: functional
SK-MEL-2 = assay: Growth inhibition of human SK-MEL-2 cells assessed as cell growth at 10 uM after 48 hrs by sulforhodamine B assay; assay type: functional; settings: SK-MEL-2, 48 h, read-out: Activity
SW-620 = assay: Growth inhibition of human SW620 cells assessed as cell growth at 10 uM after 48 hrs by sulforhodamine B assay; assay type: functional; settings: SW-620, 48 h, read-out: Activity
SF-268 [6] = assay: Growth inhibition of human SF268 cells after 48 hrs by sulforhodamine B assay; assay type: functional; settings: SF-268, 48 h; for CC50: read-out: LC50 (the source's name)
IGROV-1 [7] = assay: Growth inhibition of human IGROV1 cells assessed as cell growth at 10 uM after 48 hrs by sulforhodamine B assay; assay type: functional; settings: IGROV-1, 48 h, read-out: Activity
A498 = assay: Growth inhibition of human A498 cells after 48 hrs by sulforhodamine B assay; assay type: functional, cell-based; settings: A498, 48 h; for CC50: read-out: LC50 (the source's name)
SN12C = assay: Growth inhibition of human SN12C cells after 48 hrs by sulforhodamine B assay; assay type: functional; settings: for CC50: read-out: LC50 (the source's name)
SF-268 [8] = assay: Growth inhibition of human SF268 cells assessed as cell growth at 10 uM after 48 hrs by sulforhodamine B assay; assay type: functional; settings: SF-268, 48 h, read-out: Activity
NCI-H460 = assay: Growth inhibition of human NCI-H460 cells after 48 hrs by sulforhodamine B assay; assay type: functional; settings: NCI-H460, 48 h
CCRF-CEM = assay: Growth inhibition of human CCRF-CEM cells after 48 hrs by sulforhodamine B assay; assay type: functional
[9] = Growth inhibition of human Hs 578T cells after 48 hrs by sulforhodamine B assay; assay type: functional; settings: for CC50: read-out: LC50 (the source's name)

## COc1cc(-c2nn(-c3cccc(NC(=O)Nc4cccc(C(F)(F)F)c4)c3)cc2-c2ccncc2)ccc1Cl
NCI-H226
  GI50: 1380 nM
  TGI: > 50 µM
  CC50: > 50 µM
NCI-H522
  GI50: 714 nM
  LC50 (concentration killing 50% of cells): > 50 µM
  TGI: 2430 nM
786-0
  growth at 10 µM: -15%
ACHN
  growth at 10 µM: 6.54%
UACC-62
  growth at 10 µM: -76.1%
LOX IMVI [1]
  GI50: 789 nM
  LC50: 3.46 µM
  TGI: 1650 nM
M14
  GI50: 754 nM
  LC50 (concentration killing 50% of cells): 4.65 µM
  TGI: 1870 nM
NCI-H23
  growth at 10 µM: -12.4%
HOP-92
  GI50: 557 nM
  IC50: 560 nM
  LC50: > 50 µM
  TGI: 1770 nM
LOX IMVI [2]
  growth at 10 µM: -64.2%
HCT-116
  growth at 10 µM: 0.06%
SF-295
  GI50: 306 nM
  IC50: 310 nM
  TGI: 1130 nM
  CC50: 3.2 µM
SK-OV-3
  GI50: 2020 nM
  TGI: > 50000 nM
  CC50: > 50 µM
OVCAR-5
  GI50: 1270 nM
  LC50 (concentration killing 50% of cells): > 50 µM
  TGI: 6.45 µM
MCF7
  GI50: 751 nM
  LC50: > 50 µM
  TGI: 7.72 µM
OVCAR-4
  GI50: 1100 nM
  LC50 (concentration killing 50% of cells): > 50 µM
  TGI: 2.1 µM
HOP-62
  GI50: 1340 nM
  TGI: 4070 nM
  CC50: > 50000 nM
UO-31
  growth at 10 µM: 7.94%
SNB-75
  GI50: 1160 nM
  LC50 (lethal concentration, 50% net cell kill): 50 µM
  TGI: 4.5 µM
MDA-MB-435
  growth at 10 µM: -50%
IGROV-1 [3]
  GI50: 1060 nM
  LC50 (concentration killing 50% of cells): 50 µM
  TGI: 3110 nM
PC-3
  GI50: 372 nM
  IC50: 370 nM
  TGI: 2510 nM
  CC50: > 50 µM
Malme-3M [4]
  growth at 10 µM: -32.1%
Malme-3M [5]
  GI50: 1050 nM
  LC50 (concentration killing 50% of starting cells): 33.9 µM
  TGI: 2410 nM
SK-MEL-2
  growth at 10 µM: -71.2%
SW-620
  growth at 10 µM: 8.92%
SF-268 [6]
  GI50: 1360 nM
  TGI: 5.43 µM
  CC50: 50 µM
IGROV-1 [7]
  growth at 10 µM: 14%
A498
  GI50: 958 nM
  IC50: 960 nM
  TGI: 4040 nM
  CC50: > 50 µM
SN12C
  GI50: 1400 nM
  TGI: 21.9 µM
  CC50: > 50 µM
SF-268 [8]
  growth at 10 µM: 2.35%
NCI-H460
  GI50: 763 nM
  LC50: > 50 µM
  TGI: 3530 nM
CCRF-CEM
  GI50: 945 nM
  LC50: > 50 µM
[9]
  GI50: 1230 nM
  TGI: 12.5 µM
  CC50: > 50 µM

## COc1cc(-c2nn(-c3cccc(NC(=O)Nc4cc(C(F)(F)F)cc(C(F)(F)F)c4)c3)cc2-c2ccncc2)ccc1Cl
NCI-H226
  GI50: 1360 nM
  TGI: 21.8 µM
  CC50: > 50 µM
NCI-H522
  GI50: 623 nM
  LC50 (concentration killing 50% of cells): 6.56 µM
  TGI: 1800 nM
786-0
  growth at 10 µM: -71.1%
ACHN
  growth at 10 µM: 10.6%
UACC-62
  growth at 10 µM: -55.9%
LOX IMVI [1]
  GI50: 783 nM
  LC50: 2.94 µM
  TGI: 1520 nM
M14
  GI50: 808 nM
  LC50 (concentration killing 50% of cells): > 50 µM
  TGI: 2550 nM
NCI-H23
  growth at 10 µM: -3.3%
HOP-92
  GI50: 144 nM
  IC50: 140 nM
  LC50: 4.72 µM
  TGI: 1150 nM
LOX IMVI [2]
  growth at 10 µM: -91.3%
HCT-116
  growth at 10 µM: -43.6%
SF-295
  GI50: 399 nM
  IC50: 400 nM
  TGI: 1230 nM
  CC50: 3.31 µM
SK-OV-3
  GI50: 1090 nM
  TGI: 2570 nM
  CC50: 15.4 µM
OVCAR-5
  GI50: 937 nM
  LC50 (concentration killing 50% of cells): 12 µM
  TGI: 2.47 µM
MCF7
  GI50: 933 nM
  LC50: > 50 µM
  TGI: 10.9 µM
OVCAR-4
  GI50: 1120 nM
  LC50 (concentration killing 50% of cells): > 50 µM
  TGI: 9.64 µM
HOP-62
  GI50: 855 nM
  TGI: 1590 nM
  CC50: 2950 nM
UO-31
  growth at 10 µM: -29.2%
SNB-75
  GI50: 858 nM
  LC50 (lethal concentration, 50% net cell kill): 5.31 µM
  TGI: 2.07 µM
MDA-MB-435
  growth at 10 µM: -58.3%
IGROV-1 [3]
  GI50: 826 nM
  LC50 (concentration killing 50% of cells): 23.7 µM
  TGI: 2190 nM
PC-3
  GI50: 250 nM
  IC50: 250 nM
  TGI: 2070 nM
  CC50: > 50 µM
Malme-3M [4]
  growth at 10 µM: -10.7%
Malme-3M [5]
  GI50: 892 nM
  LC50 (concentration killing 50% of starting cells): 7.68 µM
  TGI: 2170 nM
SK-MEL-2
  growth at 10 µM: -52.1%
SW-620
  growth at 10 µM: -2.89%
SF-268 [6]
  GI50: 978 nM
  TGI: 2.43 µM
  CC50: > 50 µM
IGROV-1 [7]
  growth at 10 µM: 19.9%
A498
  GI50: 612 nM
  IC50: 610 nM
  TGI: 1900 nM
  CC50: 7.14 µM
SN12C
  GI50: 932 nM
  TGI: 3.32 µM
  CC50: > 50 µM
SF-268 [8]
  growth at 10 µM: -46.3%
NCI-H460
  GI50: 558 nM
  LC50: 16.3 µM
  TGI: 1870 nM
CCRF-CEM
  GI50: 498 nM
  LC50: > 50 µM
  TGI: 2790 nM
[9]
  GI50: 1040 nM
  TGI: 3.68 µM
  CC50: > 50 µM
